Laboratory results: US20230248000A1, “ANTIMICROBIAL COMPOUNDS AND METHODS OF USE” (Aequor, Inc., priority 2016, published 2023)
Several values for one entry are separate records, joined by “and”; a condition that tells them apart may be missing. Identical values can stand only once.

How the values were obtained:
Assay type in all cases: cell-based, Staphylococcus aureus
S. aureus ATCC 25923 [1] = assay: Minimum Inhibitory Concentration (MIC) on planktonic bacteria, CLSI M07-A9 modified for 96 well plates
S. aureus ATCC 25923 [2] = assay: Biofilm prevention (inhibition), 96-well microplate assay
S. aureus ATCC 25923 [3] = assay: Biofilm removal, MBEC Assay (ASTM E2799-12)

Row | Compound | MIC (S. aureus ATCC 25923 [1]) | Biofilm Prevention (S. aureus ATCC 25923 [2]) [%] | Biofilm Removal (S. aureus ATCC 25923 [3]) [%] | MBEC Qualitative (S. aureus ATCC 25923 [3]) [%]
1 | CCCCOP(=O)(OC)OCCCC [Dibutyl methyl phosphate] | 0.24% | 99.99 | 99.99 | >2.3
2 | CCCCOP(=O)(O)OCCCC [Dibutyl phosphate] | 0.24% and 0.01% | 99.99 | 99.99 | 0.24
